From ChEMBL document CHEMBL1144218, “Synthesis and biological activity of anticoccidial agents: 5,6-diarylimidazo[2,1-b][1,3]thiazoles” (Bioorg Med Chem Lett, 2008)

Experiments:
Eimeria tenella [1] = assay: Anticoccidial activity against Eimeria tenella infected in poultry bird assessed as reduction of […] burden at 50 ppm, po after 7 days; format: functional; set-up: scale not given: the % may be the effect or the level left
[2] = Inhibition of Eimeria tenella PKG
Eimeria acervulina [3] = assay: Anticoccidial activity against Eimeria acervulina infected in poultry bird assessed as reduction of […] burden at 50 ppm, po after 7 days; format: functional; set-up: scale not given: the % may be the effect or the level left
Eimeria mitis [4] = assay: Anticoccidial activity against Eimeria mitis infected in poultry bird assessed as reduction of […] burden at 50 ppm, po after 7 days; format: functional; set-up: scale not given: the % may be the effect or the level left
Eimeria maxima [5] = assay: Anticoccidial activity against Eimeria maxima infected in poultry bird assessed as reduction of […] burden at 50 ppm, po after 7 days; format: functional; set-up: scale not given: the % may be the effect or the level left
Eimeria acervulina [6] = assay: Anticoccidial activity against Eimeria acervulina infected in poultry bird assessed as reduction of […] burden at 25 ppm, po after 7 days; format: functional; set-up: scale not given: the % may be the effect or the level left
Eimeria tenella [7] = assay: Anticoccidial activity against Eimeria tenella infected in poultry bird assessed as reduction of […] burden at 25 ppm, po after 7 days; format: functional; set-up: scale not given: the % may be the effect or the level left
Eimeria maxima [8] = assay: Anticoccidial activity against Eimeria maxima infected in poultry bird assessed as reduction of […] burden at 25 ppm, po after 7 days; format: functional; set-up: scale not given: the % may be the effect or the level left
Eimeria mitis [9] = assay: Anticoccidial activity against Eimeria mitis infected in poultry bird assessed as reduction of […] burden at 25 ppm, po after 7 days; format: functional; set-up: scale not given: the % may be the effect or the level left
Eimeria tenella [10] = assay: Anticoccidial activity against Eimeria tenella infected in poultry bird assessed as reduction of […] burden at 12.5 ppm, po after 7 days; format: functional; set-up: scale not given: the % may be the effect or the level left
Eimeria acervulina [11] = assay: Anticoccidial activity against Eimeria acervulina infected in poultry bird assessed as reduction of […] burden at 12.5 ppm, po after 7 days; format: functional; set-up: scale not given: the % may be the effect or the level left
Eimeria maxima [12] = assay: Anticoccidial activity against Eimeria maxima infected in poultry bird assessed as reduction of […] burden at 12.5 ppm, po after 7 days; format: functional; set-up: scale not given: the % may be the effect or the level left
Eimeria mitis [13] = assay: Anticoccidial activity against Eimeria mitis infected in poultry bird assessed as reduction of […] burden at 12.5 ppm, po after 7 days; format: functional; set-up: scale not given: the % may be the effect or the level left
Eimeria tenella [14] = assay: Anticoccidial activity against Eimeria tenella infected in poultry bird assessed as reduction of […] burden at 6.25 ppm, po after 7 days; format: functional; set-up: scale not given: the % may be the effect or the level left
Eimeria acervulina [15] = assay: Anticoccidial activity against Eimeria acervulina infected in poultry bird assessed as reduction of […] burden at 6.25 ppm, po after 7 days; format: functional; set-up: scale not given: the % may be the effect or the level left
Eimeria maxima [16] = assay: Anticoccidial activity against Eimeria maxima infected in poultry bird assessed as reduction of […] burden at 6.25 ppm, po after 7 days; format: functional; set-up: scale not given: the % may be the effect or the level left
Eimeria mitis [17] = assay: Anticoccidial activity against Eimeria mitis infected in poultry bird assessed as reduction of […] burden at 6.25 ppm, po after 7 days; format: functional; set-up: scale not given: the % may be the effect or the level left

CN(C)CCc1cn2c(-c3ccncc3)c(-c3ccc(F)cc3)nc2s1
Activity (Eimeria tenella [1]): 50% | IC50 [2]: 10.1 nM | Activity (Eimeria acervulina [3]): 50% | Activity (Eimeria mitis [4]): 99% | Activity (Eimeria maxima [5]): <50%

CN1CCN(Cc2cn3c(-c4ccnc(N)n4)c(-c4ccc(F)cc4)nc3s2)CC1
Activity (Eimeria tenella [1]): 100% | IC50 [2]: 0.08 nM | Activity (Eimeria acervulina [3]): 100% | Activity (Eimeria mitis [4]): 100% | Activity (Eimeria acervulina [6]): 100% | Activity (Eimeria maxima [5]): 100% | Activity (Eimeria tenella [7]): 100% | Activity (Eimeria maxima [8]): 100% | Activity (Eimeria mitis [9]): 100% | Activity (Eimeria tenella [10]): 100% | Activity (Eimeria acervulina [11]): 100% | Activity (Eimeria maxima [12]): 100% | Activity (Eimeria mitis [13]): <50% | Activity (Eimeria tenella [14]): 100% | Activity (Eimeria acervulina [15]): 100% | Activity (Eimeria maxima [16]): 100% | Activity (Eimeria mitis [17]): <50%

CN1CCN(Cc2cn3c(-c4ccncc4)c(-c4ccc(F)cc4)nc3s2)CC1
Activity (Eimeria tenella [1]): 99% | IC50 [2]: 0.7 nM | Activity (Eimeria acervulina [3]): 100% | Activity (Eimeria mitis [4]): 80% | Activity (Eimeria maxima [5]): <50%

CN1CCN(Cc2cn3c(-c4ccncn4)c(-c4ccc(F)cc4)nc3s2)CC1
Activity (Eimeria tenella [1]): 100% | IC50 [2]: 1.04 nM | Activity (Eimeria acervulina [3]): 99% | Activity (Eimeria mitis [4]): 100% | Activity (Eimeria maxima [5]): 100%

CN1CCN(CCc2cn3c(-c4ccncc4)c(-c4ccc(F)cc4)nc3s2)CC1
Activity (Eimeria tenella [1]): 99% | IC50 [2]: 2.5 nM | Activity (Eimeria acervulina [3]): 80% | Activity (Eimeria mitis [4]): <50% | Activity (Eimeria maxima [5]): 50%

Cc1c(CN2CCN(C)CC2)sc2nc(-c3ccc(F)cc3)c(-c3ccncc3)n12
IC50 [2]: > 100 nM

CN(C)Cc1cn2c(-c3ccncc3)c(-c3ccc(F)cc3)nc2s1
Activity (Eimeria tenella [1]): 80% | IC50 [2]: 22 nM | Activity (Eimeria acervulina [3]): 50% | Activity (Eimeria mitis [4]): <50% | Activity (Eimeria maxima [5]): <50%

CN(C)Cc1cn2c(-c3ccnc(N)n3)c(-c3ccc(F)cc3)nc2s1
Activity (Eimeria tenella [1]): 99% | IC50 [2]: 0.9 nM | Activity (Eimeria acervulina [3]): 100% | Activity (Eimeria mitis [4]): 50% | Activity (Eimeria maxima [5]): <50%

CN1CCN(C(=O)c2cn3c(-c4ccncc4)c(-c4ccc(F)cc4)nc3s2)CC1
IC50 [2]: 100 nM
